Reference: patent publication US20040132764A1, “Antibiotics for the treatment of infections in acidic environments” (Morphochem Aktiengesellschaft fuer Kombinatorische Chemie, priority 2002, published 2004)
≈ marks a conversion by molar mass, not a printed value. Read-outs that look alike come from different tables or passages of the source.

Test system: bacterial strains from the Morphochem collection
Test: MIC determination by microdilution method (NCCLS guidelines, IsoSensitest broth) with pH of the test medium varied
Format: cell-based
Conditions: strain not named
Description: MICs (minimal inhibitory concentrations) were determined by a microdilution method following NCCLS guidelines, except that IsoSensitest broth (Oxoid; Basingstroke, UK) was used (National Committee for Clinical Laboratory Standards “Methods for Dilution Antimicrobial Susceptibility Tests for Bacteria that Grow Aerobically”, 4th ed.; Approved standard: NCCLS Document M7-A4; National Committee for Clinical Laboratory Satandars: Villanova, Pa., USA, 1997). The medium was supplemented with 3% lysed horse blood for fastidious organisms. Serial dilutions in 96-well plates were prepared with the help of a Biomek 2000 robot. The pH of the test medium was varied from 7.8 to 6.4. The bacterial strains used were from the Morphochem collection. Clinical isolates were originally obtained from the Kantonspital Basel, Switzerland, and from other European and US hospitals.
pH-dependent antibacterial activity (MIC (μg/mL) at pH): […]

[1] = pH 6.4 of test medium, read-out: pH-dependent antibacterial activity (MIC at pH) 6.4
[2] = pH 6.8 of test medium, read-out: pH-dependent antibacterial activity (MIC at pH) 6.8
[3] = pH 7.4 of test medium, read-out: pH-dependent antibacterial activity (MIC at pH) 7.4
[4] = pH 7.8 of test medium, read-out: pH-dependent antibacterial activity (MIC at pH) 7.8

Row | Structure (SMILES) | MIC [1] | MIC [2] | MIC [3] | MIC [4]
1 | CC(=O)NC[C@H]1CN(c2ccc(N3CCN(c4nc5c(cc4F)c(=O)c(C(=O)O)cn5C4CC4)CC3)c(F)c2)C(=O)O1 [Example 10] | 0.125 µg/mL (≈ 0.215 µM) | 0.25 µg/mL (≈ 0.429 µM) | 0.5 µg/mL (≈ 0.858 µM) | 1 µg/mL (≈ 1.72 µM)
2 | CC(=O)NC[C@H]1CN(c2ccc(N3CCOCC3)c(F)c2)C(=O)O1 [linezolid, reference compound] | 0.5 µg/mL (≈ 1.48 µM) | 0.5 µg/mL (≈ 1.48 µM) | 1 µg/mL (≈ 2.96 µM) | 1 µg/mL (≈ 2.96 µM)
3 | CC(=O)NC[C@H]1CN(c2ccc(N[C@@H]3CCN(c4cc5c(cc4F)c(=O)c(C(=O)O)cn5C4CC4)C3)c(F)c2)C(=O)O1 [Example 4] | 0.03 µg/mL (≈ 0.0516 µM) | 0.06 µg/mL (≈ 0.103 µM) | 0.25 µg/mL (≈ 0.43 µM) | 0.5 µg/mL (≈ 0.86 µM)
4 | CC(=O)NC[C@H]1CN(c2ccc(N3CCN(c4cc5c(cc4F)c(=O)c(C(=O)O)cn5C4CC4)CC3)c(F)c2)C(=O)O1 [Example 1, 7-(4-{4-[5-(acetylamino-methyl)-2-oxo-oxazolidin-3-yl]-2-fluoro-phenyl}-piperazin-1-yl)-1-cyclopropyl-6-fluoro-4-oxo-1,4-dihydro-quinoline-3-carboxylic Acid] | 0.03 µg/mL (≈ 0.0516 µM) | 0.125 µg/mL (≈ 0.215 µM) | 0.25 µg/mL (≈ 0.43 µM) | 0.5 µg/mL (≈ 0.86 µM)
